Structures are written as SMILES.

IC50 data for 21 molecules are collected here from patent publication US20230081426A1, “COMPOUNDS AND METHODS FOR KRAS MODULATION AND INDICATIONS THEREFOR” (Plexxikon Inc., priority 2020, published 2023).

In experiment [1] the target is T1, G12D-mutant human KRAS (amino acid residues 1-188) (Homo sapiens, UniProt P01116, G12D).
T1 construct: G12D or G12C-mutant human KRAS (amino acid residues 1-188) with FLAG tag; made in house; host or cells: E. coli
As to the kind of experiment: KRAS Binding Disruption Assay (AlphaScreen; biotinylated KRpep-2d analogue or RAF1-RBD), G12D. As to conditions: KRAS G12D; geometric mean; read-out: KRAS GMean IC50 (uM) MUTATION: G12D. Summed up:
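Mutant KRAS (5-20 nM) incubated 1 h at 25° C with test compound and 5-20 nM biotinylated KRpep-2d analogue or RAF1-RBD in 20 mM HEPES pH 7.5, 100 mM NaCl, 5 mM MgCl2, 0.01% Tween-20, 0.01% BSA.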
In general terms: In Alpha technology, singlet oxygen from a donor bead excites a nearby acceptor bead.

Experiment [2] has as its target T2, G12V-mutant human KRAS (amino acid residues 1-188) (Homo sapiens, UniProt P01116, G12V).
T2 construct: G12V-mutant human KRAS (amino acid residues 1-188) with FLAG tag was purified from E. coli; made in house; host or cells: E. coli
As to the kind of experiment: KRAS Binding Competition Assay (AlphaScreen; biotinylated KRpep-2d analogue), G12V. As to conditions: geometric mean, read-out: KRAS GMean IC50 (uM) MUTATION: G12V.

By IC50 is commonly meant the point on the concentration scale where inhibition reaches its midpoint. `CN1CC(=O)N(Cc2nc(N3C[C@H]4CC[C@@H](C3)N4)c3cc(Cl)c(-c4c(O)cccc4F)c(F)c3n2)C1=O` [P-0460, 3-((4-((1R,5S)-3,8-diazabicyclo[3.2.1]octan-3-yl)-6-chloro-8-fluoro-7-(2-fluoro-6-hydroxyphenyl)quinazolin-2-yl)methyl)-1-methylimidazolidine-2,4-dione]: the IC50 in experiment [1] and in experiment [2] was 10 to 100 µM in each case.
As for `N#CCC(=O)N1[C@@H]2CC[C@H]1CN(c1nc(OCC34CCCN3CCC4)nc3c(F)c(-c4cc(O)cc5ccccc45)c(Cl)cc13)C2` [P-0461, 3-((1R,5S)-3-(6-chloro-8-fluoro-7-(3-hydroxynaphthalen-1-yl)-2-((tetrahydro-1H-pyrrolizin-7a(5H)-yl)methoxy)quinazolin-4-yl)-3,8-diazabicyclo[3.2.1]octan-8-yl)-3-oxopropanenitrile], the IC50 in experiment [1] and in experiment [2] was 0.0001 to 10 µM each time.
As to `Cc1cccc2c(O)nn(-c3ccc4c(N5C[C@H]6CC[C@@H](C5)N6)nc(OC[C@@H]5CCCN5C)nc4c3F)c12` [P-0462, 1-(4-((1R,5S)-3,8-diazabicyclo[3.2.1]octan-3-yl)-8-fluoro-2-(((S)-1-methylpyrrolidin-2-yl)methoxy)quinazolin-7-yl)-7-methyl-1H-indazol-3-ol], the IC50 in experiment [1] and in experiment [2] was 10 to 100 µM in each case.
For `CN1CCC[C@H]1COc1nc(N2C[C@H]3CC[C@@H](C2)N3C(=O)CC#N)c2cc(F)c(-c3cc(O)cc4ccccc34)c(F)c2n1` [P-0464, 3-((1R,5S)-3-(6,8-difluoro-7-(3-hydroxynaphthalen-1-yl)-2-(((S)-1-methylpyrrolidin-2-yl)methoxy)quinazolin-4-yl)-3,8-diazabicyclo[3.2.1]octan-8-yl)-3-oxopropanenitrile], the values for the 50% inhibitory concentration (IC50) in experiment [1] and in experiment [2] were 10 to 100 µM and 0.0001 to 10 µM, respectively.
Take `Cc1cccc2cccc(-c3ccc4c(N5C[C@H]6CC[C@@H](C5)N6)nc(OC[C@@H]5CCCN5C)nc4c3F)c12` [P-0465, 4-((1R,5S)-3,8-diazabicyclo[3.2.1]octan-3-yl)-8-fluoro-7-(8-methylnaphthalen-1-yl)-2-(((S)-1-methylpyrrolidin-2-yl)methoxy)quinazoline]: the values for the IC50 in experiment [1] and in experiment [2] were 0.0001 to 10 µM and 10 to 100 µM, respectively.
For `Fc1c(-c2c[nH]c3ccc(Cl)c(F)c23)c(Cl)cc2c(N3C[C@H]4CC[C@@H](C3)N4)nc(OCC34CCCN3CCC4)nc12` [P-0466, 4-((1R,5S)-3,8-diazabicyclo[3.2.1]octan-3-yl)-6-chloro-7-(5-chloro-4-fluoro-1H-indol-3-yl)-8-fluoro-2-((tetrahydro-1H-pyrrolizin-7a(5H)-yl)methoxy)quinazoline], in that order: 0.0001 to 10 µM and 10 to 100 µM.
For `CN1CCC[C@H]1COc1nc(N2C[C@H]3CC[C@@H](C2)N3CC(=O)C2CCNCC2)c2ccc(-c3cc(O)cc4ccccc34)c(F)c2n1` [P-0467, 2-((1R,5S)-3-(8-fluoro-7-(3-hydroxynaphthalen-1-yl)-2-(((S)-1-methylpyrrolidin-2-yl)methoxy)quinazolin-4-yl)-3,8-diazabicyclo[3.2.1]octan-8-yl)-1-(piperidin-4-yl)ethan-1-one], in that order: 0.0001 to 10 µM and 10 to 100 µM.
With `CN1CCC[C@H]1COc1nc(N2C[C@H]3CC[C@@H](C2)N3C(=N)N)c2ccc(-c3cc(O)cc4ccccc34)c(F)c2n1` [P-0468, (1R,5S)-3-(8-fluoro-7-(3-hydroxynaphthalen-1-yl)-2-(((S)-1-methylpyrrolidin-2-yl)methoxy)quinazolin-4-yl)-3,8-diazabicyclo[3.2.1]octane-8-carboximidamide], the IC50 in experiment [1] lay within 0.0001 to 10 µM; in experiment [2], 10 to 100 µM.
The corresponding values for `CN1CCC[C@H]1COc1nc(N2C[C@H]3CC[C@@H](C2)N3c2cnccn2)c2ccc(-c3cc(O)cc4ccccc34)c(F)c2n1` [P-0469, 4-(8-fluoro-2-(((S)-1-methylpyrrolidin-2-yl)methoxy)-4-((1R,5S)-8-(pyrazin-2-yl)-3,8-diazabicyclo[3.2.1]octan-3-yl)quinazolin-7-yl)naphthalen-2-ol] are 0.0001 to 10 µM and 100 to 1000 µM.
As for `CN1CCC[C@H]1COc1nc(N2C[C@H]3CC[C@@H](C2)N3C(=O)Cc2cc[nH]n2)c2ccc(-c3cc(O)cc4ccccc34)c(F)c2n1` [P-0470, 1-((1R,5S)-3-(8-fluoro-7-(3-hydroxynaphthalen-1-yl)-2-(((S)-1-methylpyrrolidin-2-yl)methoxy)quinazolin-4-yl)-3,8-diazabicyclo[3.2.1]octan-8-yl)-2-(1H-pyrazol-3-yl)ethan-1-one], the half-inhibitory concentration (IC50) in experiment [1] was in the range of 100 to 1000 µM; in experiment [2], 10 to 100 µM.
The corresponding values for `CN1CCC[C@H]1COc1nc(N2C[C@H]3CC[C@@H](C2)N3CC(=O)N2CCNCC2)c2ccc(-c3cc(O)cc4ccccc34)c(F)c2n1` [P-0471, 2-((1R,5S)-3-(8-fluoro-7-(3-hydroxynaphthalen-1-yl)-2-(((S)-1-methylpyrrolidin-2-yl)methoxy)quinazolin-4-yl)-3,8-diazabicyclo[3.2.1]octan-8-yl)-1-(piperazin-1-yl)ethan-1-one] are 0.0001 to 10 µM and 100 to 1000 µM.
Regarding `CN1CCC[C@H]1COc1nc(N2C[C@H]3CC[C@@H](C2)N3CC(O)CO)c2ccc(-c3cc(O)cc4ccccc34)c(F)c2n1` (stereo partly drawn) [P-0472, 3-((1R,5S)-3-(8-fluoro-7-(3-hydroxynaphthalen-1-yl)-2-(((S)-1-methylpyrrolidin-2-yl)methoxy)quinazolin-4-yl)-3,8-diazabicyclo[3.2.1]octan-8-yl)propane-1,2-diol], the IC50 in experiment [1] and in experiment [2] was 0.0001 to 10 µM each time.
In the case of `COc1ccc2c(-c3c(F)cc4c(N5C[C@H]6CC[C@@H](C5)N6)nc(OC[C@@H]5CCCN5C)nc4c3F)c[nH]c2c1` [P-0473, 4-((1R,5S)-3,8-diazabicyclo[3.2.1]octan-3-yl)-6,8-difluoro-7-(6-methoxy-1H-indol-3-yl)-2-(((S)-1-methylpyrrolidin-2-yl)methoxy)quinazoline], the concentration for half-maximal inhibition (IC50) in experiment [1] and in experiment [2] was 100 to 1000 µM throughout.
In the case of `Cc1c(-c2c(F)cc3c(N4C[C@H]5CC[C@@H](C4)N5)nc(OC[C@@H]4CCCN4C)nc3c2F)cccc1C(F)(F)F` [P-0474, 4-((1R,5S)-3,8-diazabicyclo[3.2.1]octan-3-yl)-6,8-difluoro-7-(2-methyl-3-(trifluoromethyl)phenyl)-2-(((S)-1-methylpyrrolidin-2-yl)methoxy)quinazoline], the figures for the concentration for half-maximal inhibition (IC50) in experiment [1] and in experiment [2] were 0.0001 to 10 µM and 10 to 100 µM, respectively.
Turning to `CN1CCC[C@H]1COc1nc(N2C[C@H]3CC[C@@H](C2)N3CC(=O)Nc2ccccn2)c2ccc(-c3cc(O)cc4ccccc34)c(F)c2n1` [P-0475, 2-((1R,5S)-3-(8-fluoro-7-(3-hydroxynaphthalen-1-yl)-2-(((S)-1-methylpyrrolidin-2-yl)methoxy)quinazolin-4-yl)-3,8-diazabicyclo[3.2.1]octan-8-yl)-N-(pyridin-2-yl)acetamide], the IC50 lay in the range of 0.0001 to 10 µM in experiment [1] and 10 to 100 µM in experiment [2].
Turning to `Fc1c(-c2c(C(F)(F)F)ccc3[nH]ncc23)ccc2c(N3C[C@H]4CC[C@@H](C3)N4)nc(OCC34CCCN3CCC4)nc12` [P-0506, 4-((1R,5S)-3,8-diazabicyclo[3.2.1]octan-3-yl)-8-fluoro-2-((tetrahydro-1H-pyrrolizin-7a(5H)-yl)methoxy)-7-(5-(trifluoromethyl)-1H-indazol-4-yl)quinazoline], the IC50 in experiment [1] fell in the range of 0.0001 to 10 µM; in experiment [2] it was 10 to 100 µM.
The corresponding values for `CCc1cccc2[nH]cc(-c3ccc4c(N5C[C@H]6CC[C@@H](C5)N6)nc(OC[C@@]56CCCN5C[C@H](F)C6)nc4c3F)c12` [P-0511, 4-((1R,5S)-3,8-diazabicyclo[3.2.1]octan-3-yl)-7-(4-ethyl-1H-indol-3-yl)-8-fluoro-2-(((2R,7aS)-2-fluorotetrahydro-1H-pyrrolizin-7a(5H)-yl)methoxy)quinazoline] are 0.0001 to 10 µM and 0.0001 to 10 µM.
The corresponding values for `Nc1cc(-c2c(F)cc3c(N4C[C@H]5CC[C@@H](C4)N5)nc(OCC45CCCN4CCC5)nc3c2F)ccc1Cl` [P-0609, 5-(4-((1R,5S)-3,8-diazabicyclo[3.2.1]octan-3-yl)-6,8-difluoro-2-((tetrahydro-1H-pyrrolizin-7a(5H)-yl)methoxy)quinazolin-7-yl)-2-chloroaniline] are 10 to 100 µM and 100 to 1000 µM.
On to `Fc1c(-c2c[nH]c3ccc(C(F)(F)F)cc23)ccc2c(N3C[C@H]4CC[C@@H](C3)N4)nc(OCC34CCCN3CCC4)nc12` [P-0610, 4-((1R,5S)-3,8-diazabicyclo[3.2.1]octan-3-yl)-8-fluoro-2-((tetrahydro-1H-pyrrolizin-7a(5H)-yl)methoxy)-7-(5-(trifluoromethyl)-1H-indol-3-yl)quinazoline], for which the IC50 in experiment [1] lay in the range of 0.0001 to 10 µM; in experiment [2], 100 to 1000 µM.
For `CC(C)(C)c1ccc2[nH]cc(-c3ccc4c(N5C[C@H]6CC[C@@H](C5)N6)nc(OCC56CCCN5CCC6)nc4c3F)c2c1` [P-0611, 4-((1R,5S)-3,8-diazabicyclo[3.2.1]octan-3-yl)-7-(5-(tert-butyl)-1H-indol-3-yl)-8-fluoro-2-((tetrahydro-1H-pyrrolizin-7a(5H)-yl)methoxy)quinazoline], in that order: 10 to 100 µM and 100 to 1000 µM.
For the molecule `OCC1(COc2nc(N3C[C@H]4CC[C@@H](C3)N4)c3ccc(-c4cc(O)cc5ccccc45)c(F)c3n2)CCOCC1` [P-0612, 4-(4-((1R,5S)-3,8-diazabicyclo[3.2.1]octan-3-yl)-8-fluoro-2-((4-(hydroxymethyl)tetrahydro-2H-pyran-4-yl)methoxy)quinazolin-7-yl)naphthalen-2-ol], the IC50 lay within 0.0001 to 10 µM in experiment [1] and 10 to 100 µM in experiment [2].
